Structures are written as SMILES. Activity calls are given as the source filed them. No cut-off for these calls is given here.

A short description of data set [1]: Toxicity in BALB/c nude mouse xenografted with human HL-60 cells assessed as kidney morphological alterations at 100 mg/kg, po qd for 16 days by Hematoxylin and Eosin staining based analysis. It is filed as organism-based. The following applies: in vivo, 384 h, time 16 day. (Xenograft models place foreign cells or tissue in a host animal.)
Data set [2] has as its system HepG2. The data set is described as follows: Synergistic antiproliferative activity against Doxorubicin-resistant human HepG2 cells assessed as combination index at 200 uM in presence of 0.1 uM doxorubicin by MTT assay. It is filed as functional. Background: Tetrazolium assays rely on reduction of a dye to a coloured formazan, in cell work by metabolically active cells.

For data set [3], the system named is HepG2. In words: Synergistic antiproliferative activity against Doxorubicin-resistant human HepG2 cells assessed as combination index at 1 uM in presence of 0.1 uM doxorubicin by MTT assay. The data set is classed as functional.
Data set [4] can be described thus: Toxicity in BALB/c nude mouse xenografted with human HL-60 cells assessed as RDW-SD level at 100 mg/kg, po qd for 16 days (reference value: 34 fL). The data set is classed as organism-based. The following applies: in vivo, 384 h, time 16 day.
In another data set the test system is HL-60. In words: Synergistic antiproliferative activity against human HL-60 cells assessed as combination index at 3.1 uM in presence of 0.1 uM doxorubicin by MTT assay. The data set is classed as functional.
The test system of data set [5] is MCF7. The data set is described as follows: Synergistic antiproliferative activity against human MCF7 cells assessed as combination index at 3.1 uM in presence of 0.1 uM doxorubicin by MTT assay. The data set is classed as functional.
The nature of data set [6]: Toxicity in BALB/c nude mouse xenografted with human HL-60 cells assessed as HCT level at 100 mg/kg, po qd for 16 days (reference value: 66.3%). It is filed as organism-based. The following applies: in vivo, 384 h, time 16 day.
Data set [7] relates to HCT-116. In words: Inhibition of cell migration in human HCT-116 cells at 1 uM measured after 24 hrs by wound healing assay. The data set is classed as functional, cell-based.
The test system of data set [8] is HCT-116. In words: Inhibition of colony formation in human HCT-116 cells at 1 uM in presence of 100 nM doxorubicin. The data set is classed as functional, cell-based.
Data set [9] can be described thus: Plasma protein binding in rat assessed as free fraction. It is filed as ADME, cell-free.
In data set [10] the test system is HCT-116. In words: Synergistic antiproliferative activity against human HCT-116 cells assessed as combination index at 1 uM in presence of 100 nM doxorubicin by MTT assay. The data set is classed as functional.
Data set [11] concerns MCF7. The data set is described as follows: Synergistic antiproliferative activity against human MCF7 cells assessed as combination index at 100 uM in presence of 0.1 uM doxorubicin by MTT assay. The data set is classed as functional.
Data set [12] is described as follows: Toxicity in BALB/c nude mouse xenografted with human HL-60 cells assessed as liver morphological alterations at 100 mg/kg, po qd for 16 days by Hematoxylin and Eosin staining based analysis. The following applies: in vivo, 384 h, time 16 day. The data set is classed as organism-based.
Data set [13] relates to HCT-116. In words: Induction of cell cycle arrest in human HCT-116 cells assessed as increase in accumulation of cells at G2/M phase at 1 uM incubated for 24 hrs in presence of 100 nM doxorubicin by PI staining based flow cytometry. It is filed as functional.

As usually defined, the fraction unbound is the share of the substance not bound to proteins or other matrix. As for `Cc1cc2ncnn2cc1Nc1ncc2c(n1)N(C1CCOCC1)CC(=O)N2C`, the Activity result in data set [1] is “Non-Toxic”; in data set [4] it was 36 fL; in data set [6], 65.1%; in data set [12], “Non-Toxic”; with HCT-116 [13], 57.27%. Moreover, the CI with HepG2 [2] worked out at 0.2062; in the data set with HepG2 [3] it was 0.011; in the data set on HL-60 it was 0.01772; with MCF7 [5], 0.05143; in the data set on HCT-116 [10], 0.74; in the data set on MCF7 [11], 0.2764. The inhibition result in the data set on HCT-116 [7] and in the data set with HCT-116 [8] was “Active” in each case. For the same compound, the free fraction (fraction unbound) in data set [9] was 0.667.

The record behind these values is ChEMBL document CHEMBL5120836, “Discovery of novel 7,8-dihydropteridine-6(5H)-one-based DNA-PK inhibitors as potential anticancer agents via scaffold hopping strategy” (Eur J Med Chem, 2022).
